Reference: publication PMC6767236, “Selective Cannabinoid 2 Receptor Agonists as Potential Therapeutic Drugs for the Treatment of Endotoxin-Induced Uveitis” (Molecules, 2019)

Legend:
[1] = set-up: method as in earlier work; details: * previously published, cited from earlier work
[2] = system: neutrophils from CB2R-/- mice; assay: Transwell neutrophil migration assay towards CXCL2, CB2R-/- neutrophils; type: cell-based, mouse; details: 10 nM CXCL2
Description: As described previously, mouse neutrophils were isolated from the bone marrow of mice. Mice were euthanized, femur and tibia were dissected and flushed with ice-cold 1× Hanks balanced salt solution (HBSS; supplemented with […], pH7.5, and 0.5 mM EDTA; Invitrogen) through a sterile filter (70 μm). The suspension was centrifuged at 300× g for 12 min at 4 °C. EasySep™ neutrophil enrichment kit ([…] Technologies Inc., Vancouver, BC, Canada) was used to isolate neutrophils according to the manufacturer’s instructions. The isolated neutrophils were then washed once and the pelleted cells were suspended in RPMI (Invitrogen) containing 1% heat-inactivated fetal bovine serum (FBS, Invitrogen) and used immediately for neutrophil migration experiments or processed for adoptive transfer. The murine neutrophil isolation protocol routinely yields cell suspensions that are >95% pure and viable, as determined by cresyl violet and trypan blue exclusion, respectively.
Neutrophil migration assays were performed using a Transwell migration assay. Isolated neutrophils (1 × 10^5 cells/100 μL) from WT or CB2R^-/- mice were incubated with vehicle (0.01% DMSO), or various concentrations of RO8671304 or RO6851228 at 37 °C, 5% CO2 for 30 min. […] The number of migrated neutrophils was then determined using ImageJ. […]

[3] = system: leukocyte-endothelial adhesion in the iridial microcirculation; assay: Endotoxin-induced uveitis (EIU), intravital microscopy, CB2R-/- mice; type: in vivo; details: topical 1.5% w/v, 6 h after LPS
Excerpt: Male BALB/c wild-type (WT; 25-30 g; Charles River, QC, Canada) and age-matched (6–8 weeks) CB2R knockout mice (CB2R^-/-) were used for experiments. CB2R^-/- mice were obtained by crossing male C57BL/6J CB2R^-/- mice (strain B6.129P2-Cnr2tm1Dgen/J; Jackson Laboratory, Bar Harbor, ME, USA) with inbred BALB/c female mice (Charles River) for ten generations. Heterozygote mice from separate parents were then bred for a homozygote knock-out of the CB2R^-/-. CB2R^-/- was confirmed via genotyping using DNA extracted from ear punches and the Accustart II Mouse Genotyping Kit (Quanta Biosciences, MD, USA). […]
IVM was conducted as previously described in Toguri et al. (2014). […] The iridial microcirculation was observed using an Olympus OV100 Small Animal Imaging System (Olympus, Tokyo, Japan), which contains an MT-20 light source, fluorescence excitation from a xenon lamp (150 W) and an excitation filter for rhodamine-6G (excitation 515–560 nm, emission 590 nm). Images were captured in real-time by a black and white DP70 CCD C-mount camera and digitally recorded using HCImage software (Hamamatsu, Herrsching, Germany).
During IVM animals were placed on a heating pad in a stereotactic frame, and Tear-Gel® (Novartis Pharmaceuticals Canada Inc., Dorval, QC, Canada) was applied to their cornea. […] Two to four videos of each quadrant were recorded for 30 s each. […]

For `CC(C)(C)c1nc(N2CC[C@H](O)C2)c2nnn(Cc3nnnn3C3CC3)c2n1` [RO6871304, (3S)-1-{5-tert-butyl-3-[(1-cyclopropyl-1H-tetrazol-5-yl)methyl]-3H-[1,2, 3]triazolo[4,5-d]pyrimidin-7-yl}pyrrolidin-3-ol], the “Thermodynamic Solubility in FaSSIF (pH 6.5)” value ([1]; FaSSIF pH 6.5) is listed as 80 μg/mL, the “Thermodynamic Solubility in FeSSIF (pH 5.5)” value ([1]; FeSSIF pH 5.5) is listed as 273 μg/mL and the “Thermodynamic Solubility in Aqueous Buffer (pH 6.5)” value ([1]; aqueous phosphate buffer pH 6.5) is listed as 56 μg/mL. The “CXCL2-induced migration of CB2R-/- neutrophils” value [2] was “did not inhibit migration” and the “leukocyte adherence in CB2R-/- mice with EIU” value [3] was “no significant reduction in leukocyte adherence”.
